Several values for one entry are separate records, joined by “and”; a condition that tells them apart may be missing. Identical values can stand only once.
Legend:
[1] = Volume of distribution (plasma volume) of FITC-Elohaes compared to Evans Blue labelled albumin in healthy rabbits; conditions: both, rabbit, in vivo, 0.2 mg/ml
Method: All rabbits used were adults of either sex, weighing approximately 3 kg. Both ears of the rabbit were first anaesthetised by topical application of Elma cream about 30 minutes prior to commencement of the procedure. A small cut was made into the left ear vein, using a scalpel, to enable relatively simple blood sampling. A sample of blood (approximately 1.0 ml) was obtained from the cut ear vein and collected into tubes coated with anti-coagulant (EDTA). […] A mixing time of at least 5 minutes was allowed before blood sampling began. Blood samples (≈1.0 ml) were then withdrawn at various time intervals following injection, up to a maximum of 2 days. Most samples were collected within the first 3 hours and no more than 9 post-injection blood samples were taken from each rabbit. The blood samples were then centrifuged {Centaur 2} at 2300 r.p.m. for 10-15 minutes and the plasma withdrawn.
The minimisation procedure was obtained from the NAG library {Numerical Algorithms Group, Oxford; Routine E04FCF:NAGFLIB:1652/0: Mk7: December 1978}. This routine was called by a programme, written by the user and incorporated a subroutine with the appropriate mathematical equation. […]
Thus, the volume of distribution was calculated from the degree of dilution (El-Sayed et al., 1995).

[2] = Volume of distribution of FITC-Elohaes compared with Evans Blue labelled albumin in healthy and endotoxic newborn piglets; conditions: approx 1.0 mg/kg, individual piglets and mean; for Vd: pig, in vivo, iv, 1 mg/kg
Method: Seventeen piglets were used in this study. The animals were randomised into two groups, a healthy (control) group and an Escherichia coli (endotoxic) group. The animals of the endotoxic group received a bolus injection of E. coli (1.667 μg/kg), followed by a continuous infusion of E. coli (1.667 μg/kg/hr) throughout the experiment. The control group received the same dose of isotonic saline injection and infusion. Approximately 30 minutes thereafter, a sample of blood (0.6 ml) was obtained from the femoral vein catheter prior to injection of the plasma marker. A volume between 0.5 ml and 1.0 ml of the indicator was injected {of approximately 1.0 mg/kg for both plasma markers} via the femoral vein catheter into the bloodstream. The catheter was then flushed clean with an equal volume of isotonic saline. […] As before, following the withdrawal of each sample, the catheter was flushed with an equal volume of isotonic saline. Samples were obtained at various time intervals over a 6 hour period, the majority were collected within the first hour after administration of the plasma marker. Blood samples were then centrifuged at approximately 2500 r.p.m for 10-15 minutes and plasma/serum withdrawn.

[3] = endotoxic (E. coli) newborn piglets

With `Cc1cc(-c2ccc(/N=N/c3ccc4c(S(=O)(=O)O)cc(S(=O)(=O)O)c(N)c4c3O)c(C)c2)ccc1/N=N/c1ccc2c(S(=O)(=O)O)cc(S(=O)(=O)O)c(N)c2c1O` [Evans Blue] the Vd [1] was 0.0531 L/kg, the VD [2, 3] was 140.1 mL/kg and 91.7 mL/kg and 113.8 mL/kg and 112.9 mL/kg and 78.3 mL/kg and the VD ([2]; healthy newborn piglets) was 85.1 mL/kg and 86.2 mL/kg and 83.5 mL/kg and 86.9 mL/kg. For the same compound, the Vd [2, 3] was 0.0983 L/kg and the Vd ([2]; healthy newborn piglets) was 0.0896 L/kg.

Reference: patent publication US6355624B1, “Measurement of plasma volume” (University Wales College of Medicine, priority 1997, dated 2002)
